Experimental findings from article PMC10283505, “CVM-1118 (foslinanib), a 2-phenyl-4-quinolone derivative, promotes apoptosis and inhibits vasculogenic mimicry via targeting TRAP1” (Pathology and Oncology Research, 2023) are described below.

“And” between values parts separate entries of the source, which are not always exact repeats. Equal entries are not always repeated. “Also recorded” adds a separate entry of the source.

One test deals with HCT-116 cells. In words: Flow cytometry cell cycle analysis (PI). Format: cell-based, human. The following applies: HCT-116, 48 hours, dose-response. Here is the method:
Figure S2 CVM-1125 induced cell cycle arrest at G2/M in HCT-116 cells
Dose-response of CVM-1125 on cell cycle profile in HCT-116 cells was assessed by flow cytometry after treatment for 48 hours. Fluorescent signals of propidium iodide (FL2-A) of single cells were attributed to cell cycle phases and converted into percentage of the whole population of single cells (100%). The data shown are representative of at least three independent experiments.
(1 picture or pasted object on this page, not shown here)
For orientation: Flow cytometry measures light scatter and fluorescence of single cells or particles in a stream.

The next test addresses T1, TRAP1 (Homo sapiens, UniProt Q12931).
T1 sequence (Q12931 60-704): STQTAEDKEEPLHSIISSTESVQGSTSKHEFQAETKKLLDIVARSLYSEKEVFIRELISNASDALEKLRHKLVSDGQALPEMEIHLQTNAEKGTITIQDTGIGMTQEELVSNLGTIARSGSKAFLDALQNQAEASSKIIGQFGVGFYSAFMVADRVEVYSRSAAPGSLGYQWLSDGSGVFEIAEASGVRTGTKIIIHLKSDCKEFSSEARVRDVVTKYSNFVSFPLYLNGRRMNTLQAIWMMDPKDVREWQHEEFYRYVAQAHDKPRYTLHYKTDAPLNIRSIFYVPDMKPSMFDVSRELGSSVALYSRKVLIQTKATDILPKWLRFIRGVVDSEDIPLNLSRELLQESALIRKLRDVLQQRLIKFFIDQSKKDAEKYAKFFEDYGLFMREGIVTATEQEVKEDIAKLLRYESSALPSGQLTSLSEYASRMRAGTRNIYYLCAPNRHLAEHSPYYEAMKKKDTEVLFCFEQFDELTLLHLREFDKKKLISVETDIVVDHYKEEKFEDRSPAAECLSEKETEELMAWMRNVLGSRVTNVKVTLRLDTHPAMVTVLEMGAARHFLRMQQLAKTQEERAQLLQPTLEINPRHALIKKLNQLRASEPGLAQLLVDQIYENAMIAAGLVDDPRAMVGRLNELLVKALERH
In words: Surface plasmon resonance (Biacore). It counts as binding. Also noted: purchased Abcam ab123775. The following applies: TRAP1, SPR. Here is the method:
(§1) To confirm the molecular binding of the targeted protein, Surface Plasmon Resonance (SPR) was performed with a Biacore 3000. TRAP1 recombinant protein (Abcam, ab123775) or human Hsp90 recombinant protein (HSP90AB1, Abcam, ab131923) were immobilized on a CM5 sensor chip surface using the amine coupling method according to the manufacturer’s instruction (Biacore, GE Healthcare). CVM-1125 was dissolved in sodium carbonate buffer (pH 9) and then diluted in HBS-EDTA-P20 buffer to desired concentrations (five serial dilutions from 1 × 10^−5 to 1 × 10^−8 M) and injected at flow 30 μL/min with KINJET 60/180 %pos, analyte position, volume, and dissociation time. Specific binding was calculated using BiaEval 3 software.
(Surface plasmon resonance follows binding to a sensor surface in real time, without labels.)

In test [1] the target is T2, human Hsp90 recombinant protein (HSP90AB1) (Homo sapiens, UniProt P08238).
T2 construct: purchased Abcam ab131923
In words: Surface plasmon resonance (Biacore). Format: binding. As to conditions: recombinant human Hsp90 beta protein. Here is the method:
as §1

The subject of another test is UACC-62. Kind of test: NCI 60 cytotoxicity screening. It counts as cell-based. As to conditions: Homo sapiens; UACC-62, Melanoma.
A further test deals with MOLT-4. In words: NCI 60 cytotoxicity screening. As to conditions: Homo sapiens; MOLT-4, Leukemia. It counts as cell-based.
In another test the test system is RPMI-8226. Kind of test: NCI 60 cytotoxicity screening. Format: cell-based. The following applies: Homo sapiens; RPMI-8226, Leukemia.
In another test the target is T3, TGFβig-h3 (Homo sapiens, UniProt Q15582).
T3 sequence (Q15582 24-683): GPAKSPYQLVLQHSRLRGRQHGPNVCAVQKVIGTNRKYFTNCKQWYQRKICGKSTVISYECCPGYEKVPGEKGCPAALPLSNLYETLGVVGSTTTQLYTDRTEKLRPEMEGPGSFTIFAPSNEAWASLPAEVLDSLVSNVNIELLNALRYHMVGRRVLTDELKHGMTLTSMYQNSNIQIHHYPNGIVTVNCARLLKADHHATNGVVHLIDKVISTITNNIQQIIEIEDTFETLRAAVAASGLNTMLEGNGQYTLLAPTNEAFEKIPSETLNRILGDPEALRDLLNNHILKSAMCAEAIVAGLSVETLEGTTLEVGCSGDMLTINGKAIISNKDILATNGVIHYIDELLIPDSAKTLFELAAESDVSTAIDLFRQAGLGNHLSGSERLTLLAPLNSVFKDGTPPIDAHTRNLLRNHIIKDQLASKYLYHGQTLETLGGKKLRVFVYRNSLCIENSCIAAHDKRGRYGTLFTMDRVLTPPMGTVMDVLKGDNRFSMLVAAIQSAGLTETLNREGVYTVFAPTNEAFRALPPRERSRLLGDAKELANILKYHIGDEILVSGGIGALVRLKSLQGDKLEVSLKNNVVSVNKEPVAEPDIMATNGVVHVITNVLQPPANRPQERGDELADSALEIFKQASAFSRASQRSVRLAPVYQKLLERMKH
In words: Surface plasmon resonance (Biacore). Format: binding. The following applies: TGFβig-h3, SPR.

The next test concerns UACC-257. In words: NCI 60 cytotoxicity screening. Format: cell-based. The following applies: Homo sapiens; UACC-257, Melanoma.
In a further test the test system is MDA-MB-435. In words: NCI 60 cytotoxicity screening. It counts as cell-based. As to conditions: Homo sapiens; MDA-MB-435, Melanoma.
The subject of the next test is SNB-19. In words: NCI 60 cytotoxicity screening. It counts as cell-based. The following applies: Homo sapiens; SNB-19, CNS.
The test system of a further test is IGROV1. In words: NCI 60 cytotoxicity screening. Format: cell-based. The following applies: Homo sapiens, IGROV-1; IGROV1, Ovarian.

T2 sequence (P08238 whole entry): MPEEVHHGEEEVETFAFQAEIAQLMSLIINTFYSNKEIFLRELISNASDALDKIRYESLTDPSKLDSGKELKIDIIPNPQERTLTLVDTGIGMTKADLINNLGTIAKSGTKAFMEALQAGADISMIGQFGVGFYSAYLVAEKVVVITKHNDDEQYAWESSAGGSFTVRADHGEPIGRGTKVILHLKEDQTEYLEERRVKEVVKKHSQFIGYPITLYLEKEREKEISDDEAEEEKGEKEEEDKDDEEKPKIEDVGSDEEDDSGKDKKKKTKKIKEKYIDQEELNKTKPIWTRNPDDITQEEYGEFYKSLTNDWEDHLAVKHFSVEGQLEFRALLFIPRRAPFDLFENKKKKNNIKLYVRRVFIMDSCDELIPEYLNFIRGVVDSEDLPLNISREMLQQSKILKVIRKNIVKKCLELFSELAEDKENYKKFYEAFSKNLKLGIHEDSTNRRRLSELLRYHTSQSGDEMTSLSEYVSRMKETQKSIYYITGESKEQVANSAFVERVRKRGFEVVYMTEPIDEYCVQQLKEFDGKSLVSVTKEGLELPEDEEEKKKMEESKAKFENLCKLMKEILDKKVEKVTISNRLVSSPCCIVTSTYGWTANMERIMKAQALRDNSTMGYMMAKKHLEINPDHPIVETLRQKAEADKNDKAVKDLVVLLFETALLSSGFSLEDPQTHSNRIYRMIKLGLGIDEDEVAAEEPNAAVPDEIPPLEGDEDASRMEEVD

A word on the GI50: it is the concentration that inhibits growth by half. For `COc1ccc2[nH]c(-c3cccc(F)c3)cc(=O)c2c1O` [CVM-1125], in the test on HCT-116 cells, the “Effect on cell cycle profile” value was “G2/M arrest and increased sub-G1”. Besides, the kon on TRAP1 (read-out: Association (ka)) turned out to be 30200 M⁻¹ s⁻¹. Besides, the Kd on TRAP1 (read-out: KD (kd/ka)) was 67 nM and 66.8 nM. Moreover, the “interaction with Hsp90 by SPR” value in test [1] is on record as “no specific interaction; also recorded: not interacting”. Also, the GI50 in the test on UACC-62 was 31 nM; with MOLT-4, 47.6 nM; in the test on RPMI-8226, 33.1 nM; with UACC-257 it was 33.7 nM; with MDA-MB-435 it was under 10 nM; in the test on SNB-19, 28.8 nM. This compound gave a GI50 with IGROV1 of 27 nM. Also, the “Association (ka)” value at TGFβig-h3 is on record as “No interaction”. In addition, at TGFβig-h3, the “Dissociation (kd)” value was “No interaction”. Moreover, the “KD (kd/ka)” value at TGFβig-h3 is reported as “No interaction”.
